The text below walks through data of patent US11884668B1, “Substituted pyrido[3′,4′:4,5]pyrrolo[2,3-c]quinolines as CK2 inhibitors” (KING FAISAL UNIVERSITY, priority 2023, dated 2024).

In one assay the test system is MCF7 (breast). In words: In vitro cytotoxic activity assay (MTT), MCF7. The class given is cell-based. The following applies: Homo sapiens; MCF7 (breast) cells, exposed for 96 hours; read-out: IC50, concentration of compound eliciting a 50% inhibition of cell proliferation. The protocol:
(§1) Compounds 1-16 were screened for their in vitro cytotoxic activity utilizing a 3-(4,5-dimethyl-thiazol-2-yl)-2,5-diphenyltetrazolium bromide (MTT) assay against selected cancer human cell lines consisting of PC3 (prostate), HCT116 (colon), A375 (melanoma), H1299 (lung), MIAPaCa-2 (pancreas), HL60 (leukemia), MCF7 (breast), MDA-MB-231 (breast) (T. Mosmann, J. Immunol. Meth., 1983, 65, 55-63). The cells were cultured at 37° C. in RMPI1640 medium supplemented with 10% fetal bovine serum, 50 IU/mL penicillin, and 50 μg/mL streptomycin in a 5% CO2 incubator. All cells were sub-cultured 3 times/week by trypsinisation. Viable cells were seeded and allowed to adhere for 12 h before a test drug was added in 96-well plates at an initial density of 1.0×10^5 cells/mL. Tumour cell lines were separately exposed to various concentrations of the tested compounds followed by incubation at a temperature of 37° C. during 96 h inside a medium of fresh RMPI 1640. Cells were subsequently incubated at 37° C. using MTT at 0.5 mg/mL during 4 h. After removal of supernatant, formazan crystals were dissolved in isopropanol and the optical density was measured at 570 nm. CX-4945 was used as a positive control.

In another assay the test system is A375 (melanoma). In words: In vitro cytotoxic activity assay (MTT), A375. The assay is classed as cell-based. The following applies: Homo sapiens, A-375; A375 (melanoma) cells, exposed for 96 hours; read-out: IC50, concentration of compound eliciting a 50% inhibition of cell proliferation. The procedure: as §1
A further assay concerns MIAPaCa-2 (pancreas). In words: In vitro cytotoxic activity assay (MTT), MIAPaCa-2. The following applies: Homo sapiens, MIA PaCa-2; MIAPaCa-2 (pancreas) cells, exposed for 96 hours; read-out: IC50, concentration of compound eliciting a 50% inhibition of cell proliferation. The class given is cell-based. The procedure:
as §1

The test system of a further assay is HL60 (leukemia). In words: In vitro cytotoxic activity assay (MTT), HL60. The assay is classed as cell-based. The following applies: Homo sapiens, HL-60; HL60 (leukemia) cells, exposed for 96 hours; read-out: IC50, concentration of compound eliciting a 50% inhibition of cell proliferation. The procedure:
as §1

For the next assay, the system named is PC3 (prostate). Kind of assay: In vitro cytotoxic activity assay (MTT), PC3. The assay is classed as cell-based. The following applies: Homo sapiens, Prostate cell; PC3 (prostate) cells, exposed for 96 hours; read-out: IC50, concentration of compound eliciting a 50% inhibition of cell proliferation. The protocol:
as §1

A further assay concerns MDA-MB-231 (breast). Kind of assay: In vitro cytotoxic activity assay (MTT), MDA-MB-231. The class given is cell-based. The following applies: Homo sapiens; MDA-MB-231 (breast) cells, exposed for 96 hours; read-out: IC50, concentration of compound eliciting a 50% inhibition of cell proliferation. The protocol: as §1
Another assay has as its target T1, recombinant human CK2 (Homo sapiens, UniProt P68400).
T1 construct: purchased Millipore
In words: CK2 Kinase Assay (radiometric, [γ-33P]ATP). The following applies: final ATP concentration 15 μM, 10 min at 30° C.; read-out: protein kinase CK2 activity IC50. The assay is classed as biochemical. The protocol: CK2 Kinase Assay was conducted using the protocol as described in Pierre F. et al; J. Med. Chem. 2011, 54, 635-654. The tested compounds in aqueous solution were added at a volume of 10 μL to a reaction mixture comprising 10 μL of assay dilution buffer (ADB; 20 mM MOPS, pH 7.2, 25 mM β-glycerol phosphate, 5 mM EGTA, 1 mM sodium orthovanadate, and 1 mM dithiothreitol), 10 μL of substrate peptide (RRRDDDSDDD, dissolved in ADB at a concentration of 1 mM), 10 μL of recombinant human CK2 (RROP-holoenzyme, 25 ng dissolved in ADB; Millipore). Reactions were initiated by the addition of 10 μL of ATP solution (90% 75 mMMgCl2, 75 μM ATP (final ATP concentration:15 μM) dissolved in ADB; 10% [γ-33P] ATP (stock 1mCi/100 L; 3000 Ci/mmol (Perkin-Elmer) and maintained for 10 min at 30° C. The reactions were quenched with 100 μL of 0.75% phosphoric acid and then transferred to and filtered through a phosphor cellulose filter plate (Millipore). After washing each well five times with 0.75% phosphoric acid, the plate was dried under vacuum for 5 min and, following the addition of 15 μL of scintillation fluid to each well, the residual radioactivity was measured using a Wallac luminescence counter. The IC50 values were derived from eight concentrations of test inhibitors.

The next assay has as its system HCT116 (colon). Kind of assay: In vitro cytotoxic activity assay (MTT), HCT116. The class given is cell-based. The following applies: Homo sapiens, HCT-116; HCT116 (colon) cells, exposed for 96 hours; read-out: IC50, concentration of compound eliciting a 50% inhibition of cell proliferation. The protocol:
as §1

The next assay deals with H1299 (lung). In words: In vitro cytotoxic activity assay (MTT), H1299. The assay is classed as cell-based. The following applies: Homo sapiens, NCI-H1299; H1299 (lung) cells, exposed for 96 hours; read-out: IC50, concentration of compound eliciting a 50% inhibition of cell proliferation. The procedure:
as §1

T1 sequence (P68400 whole entry): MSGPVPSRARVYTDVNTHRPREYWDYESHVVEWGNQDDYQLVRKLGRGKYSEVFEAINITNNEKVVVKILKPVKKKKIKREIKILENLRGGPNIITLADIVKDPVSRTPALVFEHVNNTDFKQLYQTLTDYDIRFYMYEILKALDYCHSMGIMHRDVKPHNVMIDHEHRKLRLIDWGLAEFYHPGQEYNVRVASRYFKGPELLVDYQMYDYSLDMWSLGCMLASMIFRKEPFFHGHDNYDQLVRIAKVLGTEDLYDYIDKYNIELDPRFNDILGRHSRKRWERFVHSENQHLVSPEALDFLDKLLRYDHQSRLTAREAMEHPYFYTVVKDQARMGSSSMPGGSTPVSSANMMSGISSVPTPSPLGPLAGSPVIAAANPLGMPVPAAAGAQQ
T1 sequence (P67870 whole entry partner): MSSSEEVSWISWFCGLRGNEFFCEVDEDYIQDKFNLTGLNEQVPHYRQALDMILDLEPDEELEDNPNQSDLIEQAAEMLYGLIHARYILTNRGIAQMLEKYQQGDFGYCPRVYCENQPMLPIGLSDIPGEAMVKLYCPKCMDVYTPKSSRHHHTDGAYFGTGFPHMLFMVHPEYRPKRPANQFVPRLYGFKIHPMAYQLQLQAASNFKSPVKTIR

Turning to `O=C(O)c1ccc2c(c1)nc(Nc1cccc(Cl)c1)c1[nH]c3ccncc3c12` [Compound 1, 6-((3-chlorophenyl)amino)-7H-pyrido[3′,4′:4,5]pyrrolo[2,3-c]quinoline-3-carboxylic acid], the IC50 turned out to be 4.1 µM with MCF7 (breast); 3.3 µM with A375 (melanoma); 1100 nM in the assay on MIAPaCa-2 (pancreas); 2800 nM with HL60 (leukemia); 1100 nM with PC3 (prostate); 2500 nM in the assay with MDA-MB-231 (breast). The values for the IC50 on recombinant human CK2, in the assay on HCT116 (colon) and in the assay with H1299 (lung) were 175 nM, 1500 nM and 1900 nM, respectively.
